In the kinase profiling compilation of Christmann-Franck et al. (2016):

Experiments:
Assay in all cases: radiometric filter-binding kinase assay
BRSK1 (human) = BRSK1 (human) (UniProt Q8TDC3); settings: compound 1.0 µM
BTK (human) = BTK (human) (UniProt Q06187)
NUAK1 (human) = NUAK1 (human) (UniProt O60285)
RIPK2 (human) = RIPK2 (human) (UniProt O43353)
ERBB4 (human) = ERBB4 (human) (UniProt Q15303)
PRKACA (human) = PRKACA (human) (UniProt P17612)
EPHA4 (human) = EPHA4 (human) (UniProt P54764)
INSR (human) = INSR (human) (UniProt P06213)
NEK6 (human) = NEK6 (human) (UniProt Q9HC98)
MAPK15 (human) = MAPK15 (human) (UniProt Q8TD08)
PHKG1 (human) = PHKG1 (human) (UniProt Q16816)
CAMKK2 (human) = CAMKK2 (human) (UniProt Q96RR4)
HIPK3 (human) = HIPK3 (human) (UniProt Q9H422)
MARK1 (human) = MARK1 (human) (UniProt Q9P0L2)
MKNK1 (human) = MKNK1 (human) (UniProt Q9BUB5)
PRKCA (human) = PRKCA (human) (UniProt P17252)
CDK2 CCNA2 (human) = CDK2 CCNA2 (human) (UniProt P20248+P24941)
CaMK1 (human) = CaMK1 (human) (UniProt Q14012)
MST4 (human) = MST4 (human) (UniProt Q9P289); settings: compound 10.0 µM
JAK2 JH1 JH2 (human) = JAK2 JH1 JH2 (human) (UniProt O60674)
PAK7 (human) = PAK7 (human) (UniProt Q9P286)
MARK2 (human) = MARK2 (human) (UniProt Q7KZI7)
MAPKAPK2 (human) = MAPKAPK2 (human) (UniProt P49137)
LCK (mouse) = settings: accession and sequence are those of the human protein
MAP2K1 (human) = MAP2K1 (human) (UniProt Q02750)
NEK2 (human) = NEK2 (human) (UniProt P51955)
INSRR (human) = INSRR (human) (UniProt P14616)
CSK (human) = CSK (human) (UniProt P41240)
MINK1 (human) = MINK1 (human) (UniProt Q8N4C8)
EPHB2 (human) = EPHB2 (human) (UniProt P29323)
PRKAA1 or PRKAA2 (rat) = settings: accession and sequence are those of the human protein
RPS6KA5 KD1 KD2 (human) = RPS6KA5 KD1 KD2 (human) (UniProt O75582)
EPHA2 (human) = EPHA2 (human) (UniProt P29317)
SRPK1 (human) = SRPK1 (human) (UniProt Q96SB4)
DYRK2 (human) = DYRK2 (human) (UniProt Q92630)
Chain of DYRK2 (human) (Q92630 whole entry, looked up): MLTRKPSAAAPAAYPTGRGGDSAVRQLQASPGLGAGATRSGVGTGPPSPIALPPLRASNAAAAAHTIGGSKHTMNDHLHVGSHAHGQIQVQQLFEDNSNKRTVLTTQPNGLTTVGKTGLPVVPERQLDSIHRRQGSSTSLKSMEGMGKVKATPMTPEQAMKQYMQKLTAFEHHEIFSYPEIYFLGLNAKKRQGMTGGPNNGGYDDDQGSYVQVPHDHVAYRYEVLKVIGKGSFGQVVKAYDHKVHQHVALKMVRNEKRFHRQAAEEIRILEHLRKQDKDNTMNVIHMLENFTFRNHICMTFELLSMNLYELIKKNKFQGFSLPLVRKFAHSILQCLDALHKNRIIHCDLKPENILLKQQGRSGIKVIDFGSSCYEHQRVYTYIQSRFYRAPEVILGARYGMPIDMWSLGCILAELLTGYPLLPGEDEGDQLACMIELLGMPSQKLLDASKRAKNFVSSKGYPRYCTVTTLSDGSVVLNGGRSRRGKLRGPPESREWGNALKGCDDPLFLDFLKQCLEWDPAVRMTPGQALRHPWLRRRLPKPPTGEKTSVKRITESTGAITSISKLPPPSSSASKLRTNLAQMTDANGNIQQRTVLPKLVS

Chain of NUAK1 (human) (O60285 whole entry, looked up): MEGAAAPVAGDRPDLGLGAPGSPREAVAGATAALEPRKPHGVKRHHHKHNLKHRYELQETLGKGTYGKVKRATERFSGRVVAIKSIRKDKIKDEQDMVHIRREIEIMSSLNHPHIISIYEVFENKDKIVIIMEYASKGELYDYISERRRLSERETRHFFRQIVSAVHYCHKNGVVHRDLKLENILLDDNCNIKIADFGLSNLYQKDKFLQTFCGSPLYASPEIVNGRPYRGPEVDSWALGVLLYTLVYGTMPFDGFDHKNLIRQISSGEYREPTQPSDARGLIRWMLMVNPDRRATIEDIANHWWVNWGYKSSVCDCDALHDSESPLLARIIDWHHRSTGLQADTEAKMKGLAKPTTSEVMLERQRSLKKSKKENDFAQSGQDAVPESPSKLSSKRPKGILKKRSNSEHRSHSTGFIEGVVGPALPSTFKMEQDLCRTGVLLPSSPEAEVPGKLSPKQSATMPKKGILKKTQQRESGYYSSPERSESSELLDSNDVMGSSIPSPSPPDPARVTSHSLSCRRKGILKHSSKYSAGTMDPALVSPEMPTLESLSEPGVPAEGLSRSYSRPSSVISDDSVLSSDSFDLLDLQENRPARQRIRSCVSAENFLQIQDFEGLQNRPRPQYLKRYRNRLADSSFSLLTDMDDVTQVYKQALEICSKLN
Chain of RIPK2 (human) (O43353 whole entry, looked up): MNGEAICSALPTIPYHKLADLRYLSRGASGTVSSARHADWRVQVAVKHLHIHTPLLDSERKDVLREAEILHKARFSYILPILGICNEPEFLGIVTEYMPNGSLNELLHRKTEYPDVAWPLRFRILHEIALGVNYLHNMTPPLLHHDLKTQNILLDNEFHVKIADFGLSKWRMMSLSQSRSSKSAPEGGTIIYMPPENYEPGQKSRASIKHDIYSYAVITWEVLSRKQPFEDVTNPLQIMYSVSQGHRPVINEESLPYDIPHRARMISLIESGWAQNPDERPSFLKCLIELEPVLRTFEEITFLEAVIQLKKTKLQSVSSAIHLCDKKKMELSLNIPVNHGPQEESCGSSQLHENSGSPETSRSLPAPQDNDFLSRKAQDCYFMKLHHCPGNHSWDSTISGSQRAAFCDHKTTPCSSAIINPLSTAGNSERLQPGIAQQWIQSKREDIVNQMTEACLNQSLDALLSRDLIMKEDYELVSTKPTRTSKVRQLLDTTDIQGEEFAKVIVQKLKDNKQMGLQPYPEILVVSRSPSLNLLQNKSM
Chain of BTK (human) (Q06187 whole entry, looked up): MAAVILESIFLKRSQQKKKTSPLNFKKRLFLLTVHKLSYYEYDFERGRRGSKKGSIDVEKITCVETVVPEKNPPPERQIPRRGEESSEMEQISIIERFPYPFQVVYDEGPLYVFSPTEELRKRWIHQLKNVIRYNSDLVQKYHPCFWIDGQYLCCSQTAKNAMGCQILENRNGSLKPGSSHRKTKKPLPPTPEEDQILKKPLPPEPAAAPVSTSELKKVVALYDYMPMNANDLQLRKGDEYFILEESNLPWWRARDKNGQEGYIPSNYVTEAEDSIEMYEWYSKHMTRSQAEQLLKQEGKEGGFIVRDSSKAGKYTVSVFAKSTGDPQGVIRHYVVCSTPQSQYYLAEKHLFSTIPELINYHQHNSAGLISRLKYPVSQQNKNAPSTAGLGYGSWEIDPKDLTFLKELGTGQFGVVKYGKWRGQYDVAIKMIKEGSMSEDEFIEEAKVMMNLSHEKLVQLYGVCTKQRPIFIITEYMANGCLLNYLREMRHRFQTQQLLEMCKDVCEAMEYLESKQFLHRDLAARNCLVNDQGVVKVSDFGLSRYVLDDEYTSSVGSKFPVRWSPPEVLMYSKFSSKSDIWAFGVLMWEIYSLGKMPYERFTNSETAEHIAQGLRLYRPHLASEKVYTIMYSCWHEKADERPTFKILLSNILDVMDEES
Chain of MAP2K1 (human) (Q02750 whole entry, looked up): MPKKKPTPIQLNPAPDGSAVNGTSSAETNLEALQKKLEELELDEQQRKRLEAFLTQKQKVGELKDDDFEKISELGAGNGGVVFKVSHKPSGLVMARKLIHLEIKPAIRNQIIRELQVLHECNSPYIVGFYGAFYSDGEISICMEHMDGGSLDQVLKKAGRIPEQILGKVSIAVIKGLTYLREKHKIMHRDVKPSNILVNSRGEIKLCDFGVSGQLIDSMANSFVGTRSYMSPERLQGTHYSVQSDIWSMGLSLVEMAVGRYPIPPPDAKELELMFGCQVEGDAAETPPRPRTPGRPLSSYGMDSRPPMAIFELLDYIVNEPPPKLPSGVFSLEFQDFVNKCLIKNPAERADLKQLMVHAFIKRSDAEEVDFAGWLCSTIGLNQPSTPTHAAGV
Chain of MKNK1 (human) (Q9BUB5 whole entry, looked up): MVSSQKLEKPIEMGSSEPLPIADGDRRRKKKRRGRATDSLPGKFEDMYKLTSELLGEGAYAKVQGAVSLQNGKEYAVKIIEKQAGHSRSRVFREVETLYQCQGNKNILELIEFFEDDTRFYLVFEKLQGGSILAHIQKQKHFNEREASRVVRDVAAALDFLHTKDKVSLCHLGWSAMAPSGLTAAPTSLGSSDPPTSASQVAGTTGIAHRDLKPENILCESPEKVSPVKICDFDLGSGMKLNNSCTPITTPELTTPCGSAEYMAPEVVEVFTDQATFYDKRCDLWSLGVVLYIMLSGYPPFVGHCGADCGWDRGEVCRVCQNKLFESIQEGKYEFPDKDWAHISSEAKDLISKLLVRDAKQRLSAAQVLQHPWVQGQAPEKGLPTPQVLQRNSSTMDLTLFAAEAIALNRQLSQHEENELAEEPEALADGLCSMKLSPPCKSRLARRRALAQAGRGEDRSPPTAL
Chain of SRPK1 (human) (Q96SB4 whole entry, looked up): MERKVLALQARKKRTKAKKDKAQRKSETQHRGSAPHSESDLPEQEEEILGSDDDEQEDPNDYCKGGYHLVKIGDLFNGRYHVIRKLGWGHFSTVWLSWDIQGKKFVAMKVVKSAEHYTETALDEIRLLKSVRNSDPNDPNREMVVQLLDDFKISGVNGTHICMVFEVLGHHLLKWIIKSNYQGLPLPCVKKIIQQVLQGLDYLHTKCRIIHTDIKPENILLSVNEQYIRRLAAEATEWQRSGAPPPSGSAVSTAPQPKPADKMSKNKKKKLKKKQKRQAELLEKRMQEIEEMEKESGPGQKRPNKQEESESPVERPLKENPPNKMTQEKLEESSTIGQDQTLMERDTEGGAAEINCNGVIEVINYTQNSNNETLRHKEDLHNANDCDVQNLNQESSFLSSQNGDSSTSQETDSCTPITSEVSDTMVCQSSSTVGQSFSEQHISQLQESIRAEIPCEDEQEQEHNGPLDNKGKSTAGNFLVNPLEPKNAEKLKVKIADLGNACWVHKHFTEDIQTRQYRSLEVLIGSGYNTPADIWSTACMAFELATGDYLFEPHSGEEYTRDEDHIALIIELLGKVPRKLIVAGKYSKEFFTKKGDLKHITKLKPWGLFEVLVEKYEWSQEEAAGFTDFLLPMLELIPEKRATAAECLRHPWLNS
Chain of RPS6KA5 KD1 KD2 (human) (O75582 whole entry, looked up): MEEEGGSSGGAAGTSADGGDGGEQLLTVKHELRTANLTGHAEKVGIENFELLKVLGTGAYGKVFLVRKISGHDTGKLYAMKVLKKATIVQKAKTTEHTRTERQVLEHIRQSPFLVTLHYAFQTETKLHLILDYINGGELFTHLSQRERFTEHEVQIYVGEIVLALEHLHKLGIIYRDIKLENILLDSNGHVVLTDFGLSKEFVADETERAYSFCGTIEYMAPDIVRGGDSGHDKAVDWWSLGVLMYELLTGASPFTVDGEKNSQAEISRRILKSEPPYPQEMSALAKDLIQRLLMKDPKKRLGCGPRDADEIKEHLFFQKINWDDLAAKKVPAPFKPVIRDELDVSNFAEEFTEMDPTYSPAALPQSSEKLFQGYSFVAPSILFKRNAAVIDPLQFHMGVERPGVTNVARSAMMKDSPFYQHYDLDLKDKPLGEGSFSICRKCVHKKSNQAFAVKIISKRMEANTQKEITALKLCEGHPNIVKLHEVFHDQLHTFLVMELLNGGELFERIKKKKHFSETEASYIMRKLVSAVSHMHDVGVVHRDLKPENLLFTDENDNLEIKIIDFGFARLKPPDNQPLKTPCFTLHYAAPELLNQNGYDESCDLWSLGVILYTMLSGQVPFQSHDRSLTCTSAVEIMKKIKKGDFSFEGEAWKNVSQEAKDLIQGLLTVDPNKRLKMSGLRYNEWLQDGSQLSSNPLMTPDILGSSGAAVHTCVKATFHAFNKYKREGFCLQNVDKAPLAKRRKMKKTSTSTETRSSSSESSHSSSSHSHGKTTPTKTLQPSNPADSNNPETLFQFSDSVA

COc1cc2ncn(-c3cc(OCc4ccccc4S(C)(=O)=O)c(C#N)s3)c2cc1OC
residual activity (BRSK1 (human)): 40% | residual activity (BTK (human); compound 1.0 µM): 63% | residual activity (BTK (human); compound 10.0 µM): 45% | residual activity (NUAK1 (human); compound 1.0 µM): 35% | residual activity (NUAK1 (human); compound 10.0 µM): 35% | residual activity (RIPK2 (human); compound 1.0 µM): 14% | residual activity (RIPK2 (human); compound 10.0 µM): 6% | residual activity (ERBB4 (human); compound 1.0 µM): 78% | residual activity (ERBB4 (human); compound 10.0 µM): 84% | residual activity (PRKACA (human); compound 1.0 µM): 101% | residual activity (PRKACA (human); compound 10.0 µM): 83% | residual activity (EPHA4 (human); compound 1.0 µM): 57% | residual activity (EPHA4 (human); compound 10.0 µM): 45% | residual activity (INSR (human); compound 1.0 µM): 104% | residual activity (INSR (human); compound 10.0 µM): 105% | residual activity (NEK6 (human); compound 1.0 µM): 93% | residual activity (NEK6 (human); compound 10.0 µM): 77% | residual activity (MAPK15 (human); compound 1.0 µM): 65% | residual activity (MAPK15 (human); compound 10.0 µM): 15% | residual activity (PHKG1 (human); compound 1.0 µM): 5% | residual activity (PHKG1 (human); compound 10.0 µM): 4% | residual activity (CAMKK2 (human); compound 1.0 µM): 112% | residual activity (CAMKK2 (human); compound 10.0 µM): 86% | residual activity (HIPK3 (human); compound 1.0 µM): 102% | residual activity (HIPK3 (human); compound 10.0 µM): 61% | residual activity (MARK1 (human); compound 1.0 µM): 33% | residual activity (MARK1 (human); compound 10.0 µM): 31% | residual activity (MKNK1 (human); compound 1.0 µM): 47% | residual activity (MKNK1 (human); compound 10.0 µM): 34% | residual activity (PRKCA (human); compound 1.0 µM): 96% | residual activity (PRKCA (human); compound 10.0 µM): 88% | residual activity (CDK2 CCNA2 (human); compound 1.0 µM): 100% | residual activity (CDK2 CCNA2 (human); compound 10.0 µM): 99% | residual activity (CaMK1 (human); compound 1.0 µM): 90% | residual activity (CaMK1 (human); compound 10.0 µM): 80% | residual activity (MST4 (human)): 47% | residual activity (JAK2 JH1 JH2 (human); compound 1.0 µM): 34% | residual activity (JAK2 JH1 JH2 (human); compound 10.0 µM): 18% | residual activity (PAK7 (human); compound 1.0 µM): 80% | residual activity (PAK7 (human); compound 10.0 µM): 58% | residual activity (MARK2 (human); compound 1.0 µM): 39% | residual activity (MARK2 (human); compound 10.0 µM): 35% | residual activity (MAPKAPK2 (human); compound 1.0 µM): 99% | residual activity (MAPKAPK2 (human); compound 10.0 µM): 85% | residual activity (LCK (mouse); compound 1.0 µM): 35% | residual activity (LCK (mouse); compound 10.0 µM): 33% | residual activity (MAP2K1 (human); compound 1.0 µM): 78% | residual activity (MAP2K1 (human); compound 10.0 µM): 75% | residual activity (NEK2 (human); compound 1.0 µM): 41% | residual activity (NEK2 (human); compound 10.0 µM): 39% | residual activity (INSRR (human); compound 1.0 µM): 77% | residual activity (INSRR (human); compound 10.0 µM): 66% | residual activity (CSK (human); compound 1.0 µM): 81% | residual activity (CSK (human); compound 10.0 µM): 74% | residual activity (MINK1 (human); compound 1.0 µM): 5% | residual activity (MINK1 (human); compound 10.0 µM): 1% | residual activity (EPHB2 (human); compound 1.0 µM): 62% | residual activity (EPHB2 (human); compound 10.0 µM): 50% | residual activity (PRKAA1 or PRKAA2 (rat); compound 1.0 µM): 10% | residual activity (PRKAA1 or PRKAA2 (rat); compound 10.0 µM): 9% | residual activity (RPS6KA5 KD1 KD2 (human); compound 1.0 µM): 78% | residual activity (RPS6KA5 KD1 KD2 (human); compound 10.0 µM): 58% | residual activity (EPHA2 (human); compound 1.0 µM): 66% | residual activity (EPHA2 (human); compound 10.0 µM): 53% | residual activity (SRPK1 (human); compound 1.0 µM): 93% | residual activity (SRPK1 (human); compound 10.0 µM): 79% | residual activity (DYRK2 (human); compound 1.0 µM): 84% | residual activity (DYRK2 (human); compound 10.0 µM): 72%
